According to patent publication US12063929B2, “3′-alkynyl abscisic acid derivatives as ABA antagonists” (University of Saskatchewan, priority 2018, dated 2024):

What was measured:
Assay type in all cases: in vivo
Lentil (CDC Maxim) = Lentil (CDC Maxim) seed germination assay; conditions: for antagonist activity, lentil germination: 10 uM versus 10 uM ABA; for antagonist activity, lentil germination / agonist activity, lentil germination: data not shown; for agonist activity, lentil germination: 10 uM; for lentil seed germination, antagonism of ABA: 10 μM ABA plus 10 μM compound (FIG. 6C)
Description: 40 seeds were counted for each 100×15 mm petri dishes. Each petri dish contained two filter papers and 10 mL of test solutions. Then, they were wrapped with aluminium foil to cut off light. Wrapped plates were kept on lab bench at room temperature. Germinated seeds were counted everyday until one treatment reaches 100% germination (two days). Only light exposure was during plate counting. […]
All seeds from this experiment have been rinsed first with tap water and then with dH2O, frozen in liquid nitrogen and stored at −80° C. freezer.

Hard Red Spring wheat = Hard Red Spring wheat seedling growth (root and shoot length); conditions: 10 μM ABA, 72 h
Description: For each treatment 3 replicates of 10 seeds were plated into petri dishes lined with two filter papers and 10 mL of test solution. The covered dishes were stored at room temperature in the dark. At 72 hours, germinated seeds were scored for root length and shoot length. The following dosages were used when studying the effect of the exemplary ABA analogues of the application on wheat shoot and root growth: control 1% DMSO. 10 μM ABA, 10 μM 1019, 100 μM exemplary compound 1019, 10 μM exemplary compound 1019 plus 10 μM ABA […] and 100 μM exemplary compound 1019 plus 10 μM ABA […].

[1] = tested on: Canola seed (Nutrien PV200); test: Canola seed germination assay; conditions: 10 μM ABA, 8 day study (FIG. 10)
Description: For each treatment 6 replicates of 40 seeds were plated into petri dishes lined with two filter papers and 10 mL of test solution. The covered dishes were stored at room temperature in the dark. Germinated seeds were counted every 2 days for 8 days. The following dosages were used when studying the effect of exemplary compounds on canola germination: control 1% DMSO. 10 μM ABA, 100 μM 1019, and 100 μM 1019 plus 10 μM ABA.

[2] = 100 μM compound, in the presence of 10 μM ABA (FIG. 5)
[3] = 100 μM compound alone, compared to control (FIG. 6A)
[4] = 100 μM compound plus 10 μM ABA (FIG. 6B)

With `CCC(O)(C#CC1=C(C)[C@](O)(/C=C/C(C)=C\C(=O)O)C(C)(C)CC1=O)CC` [Compound 1059, (2Z,4E)-5-((S)-3-(3-ethyl-3-hydroxypent-1-yn-1-yl)-1-hydroxy-2,6,6-trimethyl-4-oxocyclohex-2-en-1-yl)-3-methylpenta-2,4-dienoic acid] the “antagonist activity, lentil germination” value (Lentil (CDC Maxim)) was “weak antagonist activity” and the “agonist activity, lentil germination” value (Lentil (CDC Maxim)) was “no agonist activity”.
`CC1=C(c2ccccc2)C(=O)CC(C)(C)[C@@]1(O)/C=C/C(C)=C\C(=O)O` [Compound 1080, (2Z,4E)-5-((S)-3-hydroxy-2,4,4-trimethyl-6-oxo-3,4,5,6-tetrahydro-′[1,1′-biphenyl]-3-yl)-3-methylpenta-2,4-dienoic acid] was tested, and the lentil seed germination (Lentil (CDC Maxim); [2]) was “weakly promoted”.
In the case of `CC1=C(C#C/C(C)=C\CO)C(=O)CC(C)(C)[C@@]1(O)/C=C/C(C)=C\C(=O)O` [Compound 1063, (2Z,4E)-5-((S)-1-hydroxy-3-((Z)-5-hydroxy-3-methylpent-3-en-1-yn-1-yl)-2,6,6-trimethyl-4-oxocyclohex-2-en-1-yl)-3-methylpenta-2,4-dienoic acid], the “antagonist activity, lentil germination” value (Lentil (CDC Maxim)) is reported as “weak antagonist activity” and the “agonist activity, lentil germination” value (Lentil (CDC Maxim)) is reported as “no agonist activity”.
For `CC1=C(/C=C/c2ccccc2)C(=O)CC(C)(C)[C@@]1(O)/C=C/C(C)=C\C(=O)O` [Compound 1090, (2Z,4E)-5-((S)-1-hydroxy-2,6,6-trimethyl-4-oxo-3-((E)-styryl)cyclohex-2-en-1-yl)-3-methylpenta-2,4-dienoic acid], the lentil seed germination (Lentil (CDC Maxim); [2]) was “promoted”.
`CC1=C(C#Cc2ccc(O)cc2)C(=O)CC(C)(C)[C@@]1(O)/C=C/C(C)=C\C(=O)O` [Compound 1091, (2Z,4E)-5-((S)-1-hydroxy-3-((4-hydroxyphenyl)ethynyl)-2,6,6-trimethyl-4-oxocyclohex-2-en-1-yl)-3-methylpenta-2,4-dienoic acid] was tested, and the “lentil seed germination, antagonism of ABA” value (Lentil (CDC Maxim)) was “effective antagonists”, the lentil seed germination (Lentil (CDC Maxim); [3]) was “no effect” and the lentil seed germination (Lentil (CDC Maxim); [4]) was “overcame the effect”.
In the case of `CCc1ccc(C#CC2=C(C)[C@](O)(/C=C/C(C)=C\C(=O)O)C(C)(C)CC2=O)cc1` [Compound 1025, (2Z,4E)-5-((S)-3-((4-Ethylphenyl)ethynyl)-1-hydroxy-2,6,6-trimethyl-4-oxocyclohex-2-en-1-yl)-3-methylpenta-2,4-dienoic acid], the lentil seed germination (Lentil (CDC Maxim); compound at 1 uM) is reported as “most highly promoted”.
`CC1=CC(=O)CC(C)(C)[C@@]1(O)/C=C/C(C)=C\C(=O)O` [ABA, (2Z,4E)-5-[(1S)-1-hydroxy-2,6,6-trimethyl-4-oxocyclohex-2-en-1-yl]-3-methylpenta-2,4-dienoic acid, reference compound] was tested, and the shoot growth (Hard Red Spring wheat) was “inhibited”, the lentil seed germination (Lentil (CDC Maxim); 10 uM ABA alone, day one (FIG. 3A)) was “completely inhibited” and the canola seed germination [1] was “inhibited seed germination”.
`CC1=C(C#CC2CCCCC2)C(=O)CC(C)(C)[C@@]1(O)/C=C/C(C)=C\C(=O)O` [Compound 1100, (2Z,4E)-5-((S)-3-(cyclohexylethynyl)-1-hydroxy-2,6,6-trimethyl-4-oxocyclohex-2-en-1-yl)-3-methylpenta-2,4-dienoic acid] was tested, and the “lentil seed germination, antagonism of ABA” value (Lentil (CDC Maxim)) was “effective antagonists”, the lentil seed germination (Lentil (CDC Maxim); [3]) was “no effect” and the lentil seed germination (Lentil (CDC Maxim); [4]) was “overcame the effect”.
